ChEMBL document CHEMBL1127015, “Centrally acting serotonergic and dopaminergic agents. 1. Synthesis and structure-activity relationships of 2,3,3a,4,5,9b-hexahydro-1H-benz[e]indole derivatives” (J Med Chem, 1993)

Columns and labels:
D(2) dopamine receptor [1] = molecular target: T1, D(2) dopamine receptor (Rattus norvegicus, UniProt P61169); experiment: Binding affinity against [3H]raclopride-labeled dopamine receptor D2 in rat striatum.; assay type: tissue-based
D(2) dopamine receptor [2] = molecular target: T2, D(2) dopamine receptor (Homo sapiens, UniProt P14416); experiment: Binding affinity against [3H]U-86,170-labeled dopamine receptor D2 in cloned CHO cells; assay type: cell-based
T2 sequence (P14416 whole entry): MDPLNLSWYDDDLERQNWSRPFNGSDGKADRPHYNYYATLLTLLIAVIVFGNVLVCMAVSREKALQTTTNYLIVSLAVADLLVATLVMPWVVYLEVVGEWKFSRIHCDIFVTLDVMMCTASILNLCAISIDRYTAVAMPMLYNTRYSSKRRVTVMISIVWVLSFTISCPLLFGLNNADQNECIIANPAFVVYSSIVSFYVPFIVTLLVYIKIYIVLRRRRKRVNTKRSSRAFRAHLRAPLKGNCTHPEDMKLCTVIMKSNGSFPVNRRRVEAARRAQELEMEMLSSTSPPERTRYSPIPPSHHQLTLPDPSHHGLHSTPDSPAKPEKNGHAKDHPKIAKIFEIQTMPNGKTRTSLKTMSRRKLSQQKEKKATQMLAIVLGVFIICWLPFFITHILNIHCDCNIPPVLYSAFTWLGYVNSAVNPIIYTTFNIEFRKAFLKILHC

D(2) dopamine receptor [3] = molecular target: T2, D(2) dopamine receptor; experiment: Intrinsic activity from GTP shift using membranes from CHO cells transfected with mammalian dopamine receptor D2.; assay type: cell membranes
Mus musculus [4] = experiment: Antagonism of apomorphine for 0-10 minutes in reserpinized mice when a dose of 35 micro mol/kg is administered intraperitoneally; assay type: functional
Mus musculus [5] = experiment: Antagonism of apomorphine for 10-20 minutes in reserpinized mice when a dose of 35 micro mol/kg is administered intraperitoneally; assay type: functional
Mus musculus [6] = experiment: Increase in locomotor activity in reserpinized mice following 0.4 umol/kg i.p.; assay type: functional
Mus musculus [7] = experiment: Antagonism of apomorphine in reserpinized mice when a dose of 35 micro mol/kg is administered intraperitoneally; assay type: functional
Mus musculus [8] = experiment: Ability to stimulate dopaminergic systems by effect on locomotor activity in reserpinized mice when a dose of 35 micro mol/kg is administered intraperitoneally; assay type: functional
Mus musculus [9] = experiment: Antagonism of apomorphine in reserpinized mice when a dose of 3.5 micro mol/kg is administered intraperitoneally; assay type: functional
Mus musculus [10] = experiment: Maximum decrease in temperature when compound is administered subcutaneously; assay type: functional
Mus musculus [11] = experiment: Effective dose on hypothermia in mouse when administered subcutaneously; assay type: functional; settings: sc
Mus musculus [12] = experiment: Antagonism of apomorphine for 10-20 minutes in reserpinized mice when a dose of 3.5 micro mol/kg is administered intraperitoneally; assay type: functional
Mus musculus [13] = experiment: Antagonism of apomorphine effects for 0-10 minutes in reserpinized mice following 0.4 umol/kg i.p.; assay type: functional; set-up: unit not given beside the values
Mus musculus [14] = experiment: Antagonism of apomorphine for 0-10 minutes in reserpinized mice when a dose of 3.5 micro mol/kg is administered intraperitoneally; assay type: functional
Mus musculus [15] = experiment: Antagonism of apomorphine effects for 10-20 minutes in reserpinized mice following 0.4 umol/kg i.p.; assay type: functional
Mus musculus [16] = experiment: Antagonism of apomorphine effects in reserpinized mice following 0.4 umol/kg i.p.; assay type: functional
Mus musculus [17] = experiment: Ability to stimulate dopaminergic systems by effect on locomotor activity in reserpinized mice when a dose of 3.5 micro mol/kg is administered intraperitoneally; assay type: functional
Mus musculus [18] = experiment: Antagonism of apomorphine for 0-10 minutes in reserpinized mice when a dose of 3.8 micro mol/kg is administered intraperitoneally; assay type: functional
Mus musculus [19] = experiment: Antagonism of apomorphine for 10-20 minutes in reserpinized mice when a dose of 3.8 micro mol/kg is administered intraperitoneally; assay type: functional
Mus musculus [20] = experiment: Antagonism of apomorphine in reserpinized mice when a dose of 3.8 micro mol/kg is administered intraperitoneally; assay type: functional
Mus musculus [21] = experiment: Antagonism of apomorphine for 10-20 minutes in reserpinized mice when a dose of 38 micro mol/kg is administered intraperitoneally; assay type: functional
Mus musculus [22] = experiment: Antagonism of apomorphine for 0-10 minutes in reserpinized mice when a dose of 38 micro mol/kg is administered intraperitoneally; assay type: functional
Mus musculus [23] = experiment: Ability to stimulate dopaminergic systems by effect on locomotor activity in reserpinized mice when a dose of 3.8 micro mol/kg is administered intraperitoneally; assay type: functional
Mus musculus [24] = experiment: Antagonism of apomorphine in reserpinized mice when a dose of 38 micro mol/kg is administered intraperitoneally; assay type: functional
Mus musculus [25] = experiment: Ability to stimulate dopaminergic systems by effect on locomotor activity in reserpinized mice when a dose of 38 micro mol/kg is administered intraperitoneally; assay type: functional
Mus musculus [26] = experiment: Maximum decrease in temperature when compound is administered through peroral route; assay type: functional
D(2) dopamine receptor [27] = molecular target: T1, D(2) dopamine receptor; experiment: Inhibitory concentration against [3H]raclopride-labeled dopamine receptor D2 in rat striatum; assay type: tissue-based
Mus musculus [28] = experiment: Effective dose on hypothermia in mouse when administered through peroral route; assay type: functional; settings: po
Rattus norvegicus [29] = experiment: Inhibition of firing rates of dopaminergic neurons in the substantia nigra pars compacta by intravenous injection in rats.; assay type: functional; settings: Rattus norvegicus, Substantia nigra pars compacta, iv; read-out: ED50
Mus musculus [30] = experiment: Antagonism of apomorphine for 10-20 minutes in reserpinized mice when a dose of 36 micro mol/kg is administered intraperitoneally; assay type: functional
Mus musculus [31] = experiment: Ability to stimulate dopaminergic systems by effect on locomotor activity in reserpinized mice when a dose of 3.6 micro mol/kg is administered intraperitoneally; assay type: functional
Mus musculus [32] = experiment: Time of effect in the isolation-induced aggression behavioral assay in the mouse when a dose of 0.0 micro mol/kg is administered perorally; assay type: functional
Mus musculus [33] = experiment: Time of effect in the face-to-face behavioral assay in the mouse when a dose of 36 micro mol/kg is administered perorally; assay type: functional
Mus musculus [34] = experiment: Antagonism of apomorphine for 0-10 minutes in reserpinized mice when a dose of 3.6 micro mol/kg is administered intraperitoneally; assay type: functional
Mus musculus [35] = experiment: Antagonism of apomorphine for 10-20 minutes in reserpinized mice when a dose of 3.6 micro mol/kg is administered intraperitoneally; assay type: functional
Mus musculus [36] = experiment: Antagonism of apomorphine for 0-10 minutes in reserpinized mice when a dose of 36 micro mol/kg is administered intraperitoneally; assay type: functional
Mus musculus [37] = experiment: Time of effect in the face-to-face behavioral assay in the mouse when a dose of 0.0 micro mol/kg is administered perorally; assay type: functional
Mus musculus [38] = experiment: Time of effect in the isolation-induced aggression behavioral assay in the mouse when a dose of 36 micro mol/kg is administered perorally; assay type: functional
Mus musculus [39] = experiment: Antagonism of apomorphine in reserpinized mice when a dose of 36 micro mol/kg is administered intraperitoneally; assay type: functional
Mus musculus [40] = experiment: Time of effect in the face-to-face behavioral assay in the mouse when a dose of 3.6 micro mol/kg is administered perorally; assay type: functional
Mus musculus [41] = experiment: Time of effect in the face-to-face behavioral assay in the mouse when a dose of 0.4 micro mol/kg is administered perorally; assay type: functional
Mus musculus [42] = experiment: Antagonism of apomorphine in reserpinized mice when a dose of 3.6 micro mol/kg is administered intraperitoneally; assay type: functional
Mus musculus [43] = experiment: Ability to stimulate dopaminergic systems by effect on locomotor activity in reserpinized mice when a dose of 36 micro mol/kg is administered intraperitoneally; assay type: functional
Rattus norvegicus [44] = experiment: Inhibition of firing rates of serotonergic neurons in the dorsal raphe nucleus by intravenous injection in rats; assay type: functional
Rattus norvegicus [45] = experiment: Inhibition of firing rates of dopaminergic neurons in the substantia nigra pars compacta by intravenous injection in rats; assay type: functional

T1 sequence (P61169 whole entry): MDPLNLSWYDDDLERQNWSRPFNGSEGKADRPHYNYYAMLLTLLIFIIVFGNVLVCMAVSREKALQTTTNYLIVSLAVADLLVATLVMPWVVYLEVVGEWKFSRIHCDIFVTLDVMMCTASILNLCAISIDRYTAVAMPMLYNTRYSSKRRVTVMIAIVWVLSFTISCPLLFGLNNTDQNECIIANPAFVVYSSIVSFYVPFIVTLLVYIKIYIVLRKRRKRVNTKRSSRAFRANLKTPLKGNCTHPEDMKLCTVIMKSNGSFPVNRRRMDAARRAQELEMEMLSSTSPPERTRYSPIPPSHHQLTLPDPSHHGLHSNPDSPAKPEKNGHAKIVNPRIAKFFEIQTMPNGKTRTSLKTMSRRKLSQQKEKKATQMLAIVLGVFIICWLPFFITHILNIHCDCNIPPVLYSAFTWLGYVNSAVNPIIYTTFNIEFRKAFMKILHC

Work on `CCCN1CC[C@H]2c3cccc(O)c3CC[C@H]21` (racemic) yielded a Ki (D(2) dopamine receptor [1]) greater than 1000 nM, a Ki (D(2) dopamine receptor [2]) of 218 nM and an Intrinsic activity (D(2) dopamine receptor [3]) of 1%.

Compound `CCCN1CC[C@@H]2c3cccc(OC)c3CC[C@H]21` (racemic) has a Locomotor activity (Mus musculus [4]) of 10, a Locomotor activity (Mus musculus [5]) of 34 and a Locomotor activity (Mus musculus [6]) of 1. It also gave a Locomotor activity (Mus musculus [7]) of 53, a Locomotor activity (Mus musculus [8]) of 27 and a Locomotor activity (Mus musculus [9]) of 122. It also gave a Max temperature decrease (Mus musculus [10]) of 3.9, an ED50 (Mus musculus [11]) of 34 µmol/kg and an Intrinsic activity (D(2) dopamine receptor [3]) of 0%. The Locomotor activity (Mus musculus [12]) was 98, the Locomotor activity (Mus musculus [13]) was 87 and the Locomotor activity (Mus musculus [14]) was 64. The Locomotor activity (Mus musculus [15]) was 123, the Locomotor activity (Mus musculus [16]) was 188 and the Locomotor activity (Mus musculus [17]) was 6.

`C=CCN1CC[C@@H]2c3c(O)cccc3CC[C@H]21` (racemic) was tested, and the Locomotor activity (Mus musculus [18]) was 71, the Locomotor activity (Mus musculus [6]) was 26 and the Locomotor activity (Mus musculus [19]) was 53. It also gave a Locomotor activity (Mus musculus [20]) of 5, a Locomotor activity (Mus musculus [21]) of 33 and a Locomotor activity (Mus musculus [22]) of 49. It also gave a Ki (D(2) dopamine receptor [2]) of 25 nM, an Intrinsic activity (D(2) dopamine receptor [3]) of 13% and a Locomotor activity (Mus musculus [13]) of 46. The Locomotor activity (Mus musculus [23]) was 5, the Locomotor activity (Mus musculus [24]) was 9 and the Locomotor activity (Mus musculus [15]) was 66. For the same compound, the Locomotor activity (Mus musculus [16]) was 73 and the Locomotor activity (Mus musculus [25]) was 1.

For `C=CCN1CC[C@H]2c3cccc(O)c3CC[C@H]21` (racemic), the Locomotor activity (Mus musculus [18]) was 88, the Ki (D(2) dopamine receptor [1]) was 198 nM and the Locomotor activity (Mus musculus [6]) was 0. The Locomotor activity (Mus musculus [19]) was 111, the Locomotor activity (Mus musculus [20]) was 111 and the Locomotor activity (Mus musculus [21]) was 52. The Locomotor activity (Mus musculus [22]) was 32, the Ki (D(2) dopamine receptor [2]) was 75 nM and the Intrinsic activity (D(2) dopamine receptor [3]) was 29%. It also gave a Locomotor activity (Mus musculus [13]) of 101, a Locomotor activity (Mus musculus [23]) of 8 and a Locomotor activity (Mus musculus [24]) of 21. It also gave a Locomotor activity (Mus musculus [15]) of 111, a Locomotor activity (Mus musculus [16]) of 130 and a Locomotor activity (Mus musculus [25]) of 12.

Work on `CCCN1CCC2c3c(O)cccc3CCC21` (racemic) yielded a Max temperature decrease (Mus musculus [26]) of 2.6, an IC50 (D(2) dopamine receptor [27]) greater than 1000 nM and a Max temperature decrease (Mus musculus [10]) of 8.8. It also gave an ED50 (Mus musculus [11]) of 2.1 µmol/kg and an ED50 (Mus musculus [28]) of 154 µmol/kg.

For `C=CCN1CCC2c3cccc(O)c3CC[C@@H]21` (single isomer, unassigned; (+)), the Locomotor activity (Mus musculus [18]) was 54, the Ki (D(2) dopamine receptor [1]) was 259 nM and the Locomotor activity (Mus musculus [6]) was 11. It also gave a Locomotor activity (Mus musculus [19]) of 90, a Locomotor activity (Mus musculus [20]) of 62 and a Locomotor activity (Mus musculus [21]) of 37. It also gave a Locomotor activity (Mus musculus [22]) of 20, a Ki (D(2) dopamine receptor [2]) of 59 nM and an ED50 (Rattus norvegicus [29]) of 2.82 µmol/kg. It also gave an Intrinsic activity (D(2) dopamine receptor [3]) of 50%, a Locomotor activity (Mus musculus [13]) of 50 and a Locomotor activity (Mus musculus [23]) of 42. The Locomotor activity (Mus musculus [24]) was 62, the Locomotor activity (Mus musculus [15]) was 76 and the Locomotor activity (Mus musculus [16]) was 79. It also gave a Locomotor activity (Mus musculus [25]) of 17.

`C=CCN1CCC2c3c(cccc3OC)CC[C@@H]21` (single isomer, unassigned; (+)) gave a Locomotor activity (Mus musculus [30]) of 67, a Locomotor activity (Mus musculus [31]) of 12 and a Time (Mus musculus [32]) of 27 s. The Time (Mus musculus [33]) was 1 s, the Locomotor activity (Mus musculus [6]) was 8 and the Locomotor activity (Mus musculus [34]) was 73. For the same compound, the Locomotor activity (Mus musculus [35]) was 77, the Locomotor activity (Mus musculus [36]) was 54 and the Time (Mus musculus [37]) was 0.8 s. It also gave a Max temperature decrease (Mus musculus [10]) of 3.9, a Time (Mus musculus [38]) of 21 s and an ED50 (Mus musculus [11]) of 62 µmol/kg. For the same compound, the Locomotor activity (Mus musculus [39]) was 115, the Time (Mus musculus [40]) was 0.6 s and the Time (Mus musculus [41]) was 0.9 s. The Locomotor activity (Mus musculus [42]) was 114, the Intrinsic activity (D(2) dopamine receptor [3]) was 17% and the Locomotor activity (Mus musculus [43]) was 18. The Locomotor activity (Mus musculus [13]) was 83, the Locomotor activity (Mus musculus [15]) was 92 and the Locomotor activity (Mus musculus [16]) was 103.

In the case of `CCCN(CCC)C1CCc2cccc(O)c2C1` (centres undefined) [8-OH-DPAT], the Ki (D(2) dopamine receptor [1]) is reported as greater than 1000 nM, the ED50 (Rattus norvegicus [44]) is reported as 0.005 µmol/kg and the ED50 (Rattus norvegicus [45]) is reported as 2.25 µmol/kg.

`CN1CCc2cccc3c2[C@H]1Cc1ccc(O)c(O)c1-3` [APOMORPHINE] gave an ED50 (Rattus norvegicus [29]) of 0.03 µmol/kg.

`CN(C)CCCN1c2ccccc2Sc2ccc(Cl)cc21` [CHLORPROMAZINE] showed an Intrinsic activity (D(2) dopamine receptor [3]) of 5%.
